pIC50: −log10 of the molar value. Converted amounts (≈) assume the structure as drawn. “And” between values parts separate entries of the source, which are not always exact repeats. Equal entries are not always repeated. “Also recorded” adds a separate entry of the source. Where two headings read alike, the source gives them in different places.
How the values were obtained:
[1] = biological target: human DNA topoisomerase IIα (Homo sapiens (Human), UniProt P11388); experiment: Agarose gel-based inhibition assay against human DNA topoisomerase IIα; type: biochemical; conditions: gallates at 100 µM
Mtb DNA gyrase = Mtb DNA gyrase (Mycobacterium tuberculosis (strain ATCC 25618 / H37Rv), UniProt P9WG45+P9WG47); experiment: Mtb DNA gyrase inhibition assay (gel-based); type: biochemical; conditions: for IC50: Table 10, read-out: IC50 (µM) Mtb gyrase
Procedure: The IC50 against E. coli (A) and Mtb (C) gyrase were determined using the gel-based gyrase inhibition assays. The gyrase mediated DNA cleavage assays (B and D) were performed using pBR322. (A) 229 inhibits E. coli gyrase. Lane 1, rx pAB1. […] Lane 1, rx pAB1. […] 100 µM of CPDs were used. Symbols rx, nk, In, and sc represent relaxed, nicked, linear, and supercoiled DNA, respectively.
Agarose gel-based DNA gyrase inhibition assays were performed in 30 µL of 1 ×gyrase buffer (35 mM Tris-HCl, 24 mM KCl, 4 mM MgCl2, 2 mM DTT, 1.75 mM ATP, 0.1 mg/mL BSA, 6.5% glycerol, pH7.5) containing 400 ng of rx pAB1 at 37° C. 100 ng of DNA gyrase was used to supercoil the rx pAB1 in the presence of different concentrations of a gyrase inhibitor. After 15 minutes of incubation with the inhibitor at 37° C., all reactions were stopped with 1 µL of stop solution (3% SDS and 250 mM EDTA). Samples were analyzed by electrophoresis in 1% w/v agarose gels followed by ethidium bromide staining and photographed under UV light.

E. coli DNA gyrase [2] = biological target: T1, E. coli DNA gyrase (Escherichia coli (strain K12), UniProt P0AES4+P0AES6); experiment: biochemical; type: biochemical
[3] = biological target: E. coli DNA topoisomerase I (Escherichia coli (strain K12), UniProt P06612); experiment: E. coli DNA topoisomerase I inhibition; type: biochemical; conditions: gallates at 100 µM
[4] = biological target: T2, E. coli DNA topoisomerase IV (Escherichia coli (strain K12), UniProt P0AFI2+P20083); experiment: E. coli DNA topoisomerase IV relaxation assay (gel-based); type: biochemical; conditions: for pIC50: IC50 Topoisomerase IV Gel-based, Table 8
Procedure: (§1) Relaxation assays by E. coli DNA topoisomerase IV and the ATPase assays were performed. […] Lane 1 is supercoiled plasmid pAB1. […] The supercoiled, fluorescently-labeled plasmid pAB1_FL905 was used.

E. coli DNA gyrase [5] = biological target: T1, E. coli DNA gyrase; experiment: E. coli DNA gyrase ATPase assay; type: biochemical; conditions: AB-MECA and gallates at 100 µM
Procedure: E. coli DNA gyrase ATPase assays were performed in 60 µL of 1 ×gyrase ATPase buffer (10 mM Tris.HCl (pH 7.5), 0.2 mM EDTA, 1 mM magnesium chloride, 1 mM DTT, and 2% (w/v) glycerol) containing 50 nM E. coli DNA gyrase, 200 ng rx pAB1, 0.8 mM Phosphoenol pyruvate, 1.2 units of Pyruvate kinase, 1.7 units of lactate dehydrogenase, and 0.4 mM of NADH at 37° C. After the reaction mixtures are incubated on ice for 5 minutes, 2 mM of ATP is added to initiate the reaction. Absorbance at OD340nm is monitored for up to 30 minutes at 37° C. in a spectrophotometer.

[6] = biological target: human DNA topoisomerase I (Homo sapiens (Human), UniProt P11387); experiment: Human DNA topoisomerase I inhibition; type: biochemical; conditions: gallates at 100 µM
MRSA = experiment: Minimum inhibitory concentration, broth microdilution; conditions: Staphylococcus aureus, ATCC33591 / MRSA, read-out: MIC MRSA ATCC 33591
Procedure: (§2) Antibacterial minimum inhibitory concentrations (MICs) were obtained from three independent experiments using broth microdilution methods in 96-well plates according to Clinical and Laboratory Standards Institute guidelines. Cells were culture from singles colonies in MHIIB medium for 24 h at 37° C. in agitation (200 RPM). The cultures were then diluted using the same media to reach an OD600 of 0.1. Then, 50 µL of the diluted cultures were added to the plates holding 50 µL of serially diluted compounds in MHIIB. The plates were incubated at 37° C. for 20 h. The starting inoculum was fixated to 10^5 colony-forming units per ml.

E. coli imp = experiment: microbe, parasite or virus in culture; conditions: Escherichia coli, read-out: MIC E. coli imp BAS3023
Procedure: as §2

S. aureus (ATCC 14775) = experiment: Minimum inhibitory concentration, broth microdilution; conditions: Staphylococcus aureus
E. coli DNA gyrase [7] = biological target: T1, E. coli DNA gyrase; experiment: SDFQ-based DNA gyrase inhibition assay; type: biochemical; conditions: Table 8; read-out: IC50 Gyrase SDFQ
Procedure: 100 ng of DNA gyrase was used to supercoil the rx pAB1_FL905 in the presence of different concentrations of a gyrase inhibitor. […] The IC50 values were estimated by nonlinear fitting of the following equation: […]
where F is the fluorescence intensity at the x concentration of an min inhibitor. Fmax and Fmin are the maximum and minimum fluorescence of the DNA sample, respectively. P is a slope parameter.

E. coli DNA gyrase [8] = biological target: T1, E. coli DNA gyrase; experiment: Agarose gel-based DNA gyrase inhibition assay; type: biochemical; conditions: Table 8; read-out: IC50 Gyrase Gel-based
Procedure: 100 ng of DNA gyrase was used to supercoil the rx pAB1 in the presence of different concentrations of a gyrase inhibitor. […] Samples were analyzed by electrophoresis in 1% w/v agarose gels followed by ethidium bromide staining and photographed under UV light.

E. coli (ATCC 25922) = experiment: Minimum inhibitory concentration, broth microdilution; conditions: Escherichia coli
Procedure: as §2

B. subtilis (ATCC 6633) = experiment: as above; conditions: Bacillus subtilis, ATCC6633, read-out: MIC B. subtilis ATCC 6633
[9] = biological target: T2, E. coli DNA topoisomerase IV; experiment: SDFQ-based DNA relaxation assay with E. coli DNA topoisomerase IV; type: biochemical
Procedure: as §1

Mtb = Mtb whole cell assay (% inhibition, MIC); type: cell-based, Mycobacterium tuberculosis; conditions: Mycobacterium tuberculosis
in vitro = conditions: human
M. abscessus = experiment: MIC against M. abscessus; type: cell-based, Mycobacterium abscessus; conditions: Mycobacteroides abscessus
[10] = ATCC14775, read-out: MIC S. aureus ATCC 14775
[11] = ATCC25922, read-out: MIC E coli ATCC 25922, Table 9
[12] = ATCC14775, read-out: MIC (µM) Sa
[13] = ATCC25922, read-out: MIC (µM) Ec, E. coli strain ATCC25922

T2 sequence (P0AFI2 whole entry, looked up): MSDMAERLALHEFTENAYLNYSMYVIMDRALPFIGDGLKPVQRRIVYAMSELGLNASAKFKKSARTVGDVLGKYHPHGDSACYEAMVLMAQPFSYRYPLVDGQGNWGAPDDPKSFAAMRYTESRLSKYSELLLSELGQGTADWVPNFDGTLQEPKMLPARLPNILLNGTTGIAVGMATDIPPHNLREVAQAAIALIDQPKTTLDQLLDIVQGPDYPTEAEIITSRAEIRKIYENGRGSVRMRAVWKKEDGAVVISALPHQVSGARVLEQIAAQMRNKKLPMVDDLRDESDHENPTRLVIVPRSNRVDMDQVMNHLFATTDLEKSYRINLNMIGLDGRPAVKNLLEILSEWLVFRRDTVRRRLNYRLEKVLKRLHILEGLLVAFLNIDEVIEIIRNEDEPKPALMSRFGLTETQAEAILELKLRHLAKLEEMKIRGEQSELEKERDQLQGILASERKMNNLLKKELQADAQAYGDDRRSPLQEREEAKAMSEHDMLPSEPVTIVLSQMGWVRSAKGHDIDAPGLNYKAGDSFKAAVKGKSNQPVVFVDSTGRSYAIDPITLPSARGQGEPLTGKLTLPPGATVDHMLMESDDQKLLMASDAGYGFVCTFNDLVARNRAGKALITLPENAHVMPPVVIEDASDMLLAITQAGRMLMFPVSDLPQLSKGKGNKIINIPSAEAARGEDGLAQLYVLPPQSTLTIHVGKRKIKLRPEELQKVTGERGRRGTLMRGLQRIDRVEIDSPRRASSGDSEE
T2 sequence (P20083 whole entry, looked up): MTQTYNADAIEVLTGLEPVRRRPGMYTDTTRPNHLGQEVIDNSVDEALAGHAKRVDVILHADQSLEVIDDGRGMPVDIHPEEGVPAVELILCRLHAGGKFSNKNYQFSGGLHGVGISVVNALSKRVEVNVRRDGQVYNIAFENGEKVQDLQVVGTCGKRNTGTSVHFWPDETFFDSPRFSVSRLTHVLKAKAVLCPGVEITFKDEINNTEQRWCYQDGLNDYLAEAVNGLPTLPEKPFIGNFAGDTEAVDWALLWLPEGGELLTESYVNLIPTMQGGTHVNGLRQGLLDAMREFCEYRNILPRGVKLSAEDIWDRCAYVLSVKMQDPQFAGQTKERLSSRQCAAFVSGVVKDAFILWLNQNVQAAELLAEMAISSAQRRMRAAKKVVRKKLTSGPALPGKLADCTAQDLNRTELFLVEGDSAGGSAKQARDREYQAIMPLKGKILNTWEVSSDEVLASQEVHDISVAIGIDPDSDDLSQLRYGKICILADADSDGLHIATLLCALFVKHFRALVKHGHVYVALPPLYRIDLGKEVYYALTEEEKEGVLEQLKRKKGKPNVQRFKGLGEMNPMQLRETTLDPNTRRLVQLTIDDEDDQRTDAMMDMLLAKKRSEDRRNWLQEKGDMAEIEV
Chain of human DNA topoisomerase IIα (P11388 whole entry): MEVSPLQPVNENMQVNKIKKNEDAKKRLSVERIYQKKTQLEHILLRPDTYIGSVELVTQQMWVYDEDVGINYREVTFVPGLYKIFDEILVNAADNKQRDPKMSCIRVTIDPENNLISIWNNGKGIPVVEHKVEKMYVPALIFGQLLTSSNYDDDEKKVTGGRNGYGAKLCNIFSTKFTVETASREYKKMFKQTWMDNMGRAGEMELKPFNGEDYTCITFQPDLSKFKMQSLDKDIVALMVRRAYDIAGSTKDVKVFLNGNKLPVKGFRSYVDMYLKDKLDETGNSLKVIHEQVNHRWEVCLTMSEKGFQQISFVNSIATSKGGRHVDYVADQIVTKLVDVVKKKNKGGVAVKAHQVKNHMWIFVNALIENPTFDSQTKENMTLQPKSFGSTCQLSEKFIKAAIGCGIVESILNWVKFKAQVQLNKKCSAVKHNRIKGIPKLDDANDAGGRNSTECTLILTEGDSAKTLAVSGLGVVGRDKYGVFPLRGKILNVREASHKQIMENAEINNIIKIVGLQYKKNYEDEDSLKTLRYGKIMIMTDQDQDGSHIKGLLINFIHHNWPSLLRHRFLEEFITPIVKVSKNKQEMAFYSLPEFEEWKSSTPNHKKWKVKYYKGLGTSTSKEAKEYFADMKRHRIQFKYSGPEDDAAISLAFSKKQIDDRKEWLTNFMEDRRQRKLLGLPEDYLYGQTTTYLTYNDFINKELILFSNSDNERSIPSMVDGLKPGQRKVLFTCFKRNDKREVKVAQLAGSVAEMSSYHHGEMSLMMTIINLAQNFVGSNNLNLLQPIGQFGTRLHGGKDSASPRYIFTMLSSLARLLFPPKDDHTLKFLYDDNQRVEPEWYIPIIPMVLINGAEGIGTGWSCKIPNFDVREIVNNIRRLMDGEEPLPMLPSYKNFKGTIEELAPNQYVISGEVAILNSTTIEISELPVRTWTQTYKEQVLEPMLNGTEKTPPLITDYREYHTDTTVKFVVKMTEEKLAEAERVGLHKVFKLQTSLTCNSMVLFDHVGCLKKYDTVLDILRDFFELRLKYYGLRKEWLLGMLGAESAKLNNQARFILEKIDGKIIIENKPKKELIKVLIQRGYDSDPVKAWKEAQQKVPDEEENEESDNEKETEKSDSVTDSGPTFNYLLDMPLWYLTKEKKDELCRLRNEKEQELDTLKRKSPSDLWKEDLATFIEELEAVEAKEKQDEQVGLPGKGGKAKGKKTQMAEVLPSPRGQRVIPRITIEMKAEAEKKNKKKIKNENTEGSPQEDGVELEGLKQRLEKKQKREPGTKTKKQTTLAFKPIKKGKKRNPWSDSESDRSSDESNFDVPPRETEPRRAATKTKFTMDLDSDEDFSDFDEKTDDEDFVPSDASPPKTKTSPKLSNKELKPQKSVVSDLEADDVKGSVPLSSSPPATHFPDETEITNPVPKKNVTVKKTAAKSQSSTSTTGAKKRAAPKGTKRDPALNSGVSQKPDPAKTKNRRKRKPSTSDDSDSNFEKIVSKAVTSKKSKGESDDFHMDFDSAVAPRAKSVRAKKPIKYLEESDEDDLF
Chain of E. coli DNA topoisomerase I (P06612 whole entry, looked up): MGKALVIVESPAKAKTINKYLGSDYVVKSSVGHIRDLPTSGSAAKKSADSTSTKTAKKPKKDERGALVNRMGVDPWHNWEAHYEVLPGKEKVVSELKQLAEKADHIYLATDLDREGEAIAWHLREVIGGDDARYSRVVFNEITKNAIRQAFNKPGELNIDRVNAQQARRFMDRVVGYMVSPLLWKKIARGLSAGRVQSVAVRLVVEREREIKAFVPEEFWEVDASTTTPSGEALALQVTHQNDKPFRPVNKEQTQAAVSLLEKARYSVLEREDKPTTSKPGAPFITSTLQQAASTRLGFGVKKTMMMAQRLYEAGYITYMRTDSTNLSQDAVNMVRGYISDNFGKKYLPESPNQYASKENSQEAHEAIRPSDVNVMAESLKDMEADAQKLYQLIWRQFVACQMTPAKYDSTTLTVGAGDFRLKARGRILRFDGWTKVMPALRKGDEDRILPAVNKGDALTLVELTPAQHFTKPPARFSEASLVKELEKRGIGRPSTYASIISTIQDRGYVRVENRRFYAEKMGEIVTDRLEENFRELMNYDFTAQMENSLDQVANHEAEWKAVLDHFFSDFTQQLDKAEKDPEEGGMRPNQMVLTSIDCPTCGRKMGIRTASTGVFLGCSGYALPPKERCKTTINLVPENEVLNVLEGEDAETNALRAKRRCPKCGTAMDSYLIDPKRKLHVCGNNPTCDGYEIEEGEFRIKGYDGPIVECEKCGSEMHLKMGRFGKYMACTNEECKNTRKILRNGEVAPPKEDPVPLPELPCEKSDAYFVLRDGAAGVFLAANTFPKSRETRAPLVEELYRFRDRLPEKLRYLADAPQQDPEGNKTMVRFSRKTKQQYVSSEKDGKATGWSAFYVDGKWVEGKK
Chain of human DNA topoisomerase I (P11387 whole entry): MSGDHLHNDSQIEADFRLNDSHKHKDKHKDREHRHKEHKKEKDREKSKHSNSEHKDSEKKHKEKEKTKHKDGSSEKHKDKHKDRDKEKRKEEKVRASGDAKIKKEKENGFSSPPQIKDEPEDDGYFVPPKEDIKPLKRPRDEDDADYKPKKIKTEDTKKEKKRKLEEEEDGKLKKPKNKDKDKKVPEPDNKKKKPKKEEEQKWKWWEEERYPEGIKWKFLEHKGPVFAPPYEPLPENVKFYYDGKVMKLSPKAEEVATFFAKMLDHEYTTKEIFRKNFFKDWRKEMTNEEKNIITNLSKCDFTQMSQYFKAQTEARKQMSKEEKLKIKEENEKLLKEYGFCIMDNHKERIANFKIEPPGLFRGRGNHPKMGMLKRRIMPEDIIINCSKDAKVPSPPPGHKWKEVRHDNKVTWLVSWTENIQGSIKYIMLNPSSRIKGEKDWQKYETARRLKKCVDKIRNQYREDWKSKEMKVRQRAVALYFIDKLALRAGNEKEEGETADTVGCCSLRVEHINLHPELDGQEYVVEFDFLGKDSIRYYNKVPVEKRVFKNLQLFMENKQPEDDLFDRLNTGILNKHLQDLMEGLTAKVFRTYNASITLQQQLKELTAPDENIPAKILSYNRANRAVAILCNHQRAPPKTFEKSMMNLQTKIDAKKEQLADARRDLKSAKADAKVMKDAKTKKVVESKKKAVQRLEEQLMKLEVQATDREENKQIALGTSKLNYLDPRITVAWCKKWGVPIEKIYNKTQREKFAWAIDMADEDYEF

CNC(=O)[C@H]1O[C@@H](n2cnc3c(NCc4ccc(N)cc4)ncnc32)[C@H](O)[C@@H]1O [AB-MECA, reference compound]
inhibition of human DNA topoisomerase IIα [1]: did not inhibit | inhibition of Mtb DNA gyrase activities (Mtb DNA gyrase): did not inhibit | inhibition of E. coli DNA gyrase activities (E. coli DNA gyrase [2]): does not inhibit | inhibition of E. coli DNA topoisomerase I [3]: did not inhibit | inhibition of E. coli DNA topoisomerase IV [4]: did not inhibit | inhibition of the ATPase activities of E. coli DNA gyrase (E. coli DNA gyrase [5]): did not inhibit | inhibition of human DNA topoisomerase I [6]: did not inhibit

CCCCOC(=O)c1cc(O)c(O)c(O)c1 [Butyl gallate, butyl gallate]
MIC (MRSA): > 200 µM | MIC (E. coli imp): > 200 µM | MIC (S. aureus (ATCC 14775); [10]): > 200 µM | pIC50 (E. coli DNA gyrase [7]): < 4.00 | pIC50 (E. coli DNA gyrase [8]): < 4.00 | MIC (E. coli (ATCC 25922); [11]): > 200 µM | MIC (B. subtilis (ATCC 6633)): > 64 µg/mL and > 200 µM | pIC50 [4]: < 4.00 | pIC50 [9]: < 4.00

C[n+]1c(-c2ccc(/C=N/NC(=O)c3cccc(C(=O)N/N=C/c4ccc(-c5cn6ccccc6[n+]5C)cc4)c3)cc2)cn2ccccc21 [Compound 259]
MIC (Mtb): > 200 µM | MIC (S. aureus (ATCC 14775); [12]): 200 µM | IC50 (Mtb DNA gyrase): 2.6 µM | MIC (E. coli (ATCC 25922); [13]): > 200 µM | pIC50 (in vitro): < 3.70 | MIC (M. abscessus): > 200 µM

C[n+]1c(-c2ccc(/C=N/NC(=O)c3cncc(C(=O)N/N=C/c4ccc(-c5cn6ccccc6[n+]5C)cc4)c3)cc2)cn2ccccc21 [Compound 260]
MIC (Mtb): > 200 µM | MIC (S. aureus (ATCC 14775); [12]): > 200 µM | IC50 (Mtb DNA gyrase): 92 µM | MIC (E. coli (ATCC 25922); [13]): > 200 µM | pIC50 (in vitro): < 3.70 | MIC (M. abscessus): > 200 µM

CCCCSc1ccn2cc(-c3ccc(/C=N/NC(=O)c4ccc(C(=O)N/N=C/c5ccc(-c6cn7ccc(SCCCC)cc7[n+]6C)cc5)cc4)cc3)[n+](C)c2c1 [Compound 262]
MIC (Mtb): 122 µM | MIC (S. aureus (ATCC 14775); [12]): > 200 µM | IC50 (Mtb DNA gyrase): 118 µM | MIC (E. coli (ATCC 25922); [13]): > 200 µM | pIC50 (in vitro): < 3.70 | MIC (M. abscessus): > 200 µM

CCCCCCCCCCCCOC(=O)c1cc(O)c(O)c(O)c1 [Dodecyl gallate, dodecyl gallate]
MIC (MRSA): 200 µM (≈ 67.7 µg/mL) | MIC (E. coli imp): 200 µM (≈ 67.7 µg/mL) | MIC (S. aureus (ATCC 14775); [10]): 67.7 µg/mL and 200 µM | pIC50 (E. coli DNA gyrase [7]): 4.86 | pIC50 (E. coli DNA gyrase [8]): 4.82 | MIC (E. coli (ATCC 25922); [11]): > 200 µM | MIC (B. subtilis (ATCC 6633)): 8 µg/mL and 25 µM to 50 µM | inhibition of E. coli DNA topoisomerase IV [4]: strongly inhibit | pIC50 [4]: 4.30 | pIC50 [9]: 4.43

CNC(=O)[C@H]1O[C@@H](n2cnc3c(NCc4cccc(I)c4)ncnc32)[C@H](O)[C@@H]1O [IB-MECA, reference compound]
inhibition of human DNA topoisomerase IIα [1]: did not inhibit | inhibition of Mtb DNA gyrase activities (Mtb DNA gyrase): did not inhibit | pIC50 (E. coli DNA gyrase [2]; read-out: IC50 against E. coli DNA gyrase): 4.29 | inhibition of E. coli DNA topoisomerase I [3]: did not inhibit | inhibition of E. coli DNA topoisomerase IV [4]: did not inhibit | inhibition of the ATPase activities of E. coli DNA gyrase (E. coli DNA gyrase [5]): ATP competitive inhibitors; also recorded: inhibition | inhibition of human DNA topoisomerase I [6]: did not inhibit

Source: US20230364057A1, “BACTERIAL DNA GYRASE INHIBITORS AND METHODS OF USE THEREOF” (THE FLORIDA INTERNATIONAL UNIVERSITY BOARD OF TRUSTEES, priority 2022, published 2023)
